Counter-ions that a name gives are not always drawn.
What was measured:
Format in all cases: cell-based
[1] = test system: Candida albicans (ATCC #10231); assay: Minimum Inhibitory Concentration (MIC) synergy study, yeast; settings: for MIC: Candida albicans; for Minimum Inhibitory Concentration (ppm) MBIT: C. albicans, MBIT alone (1:0) or MBIT portion of the mixture
Experimental: (§1) The synergism of the biocides combination of the present invention was determined using the method described by Kull, F. C, et. all in Applied Microbiology 9:538-541 (1961). […] In this invention, two different approaches of synergistic study were conducted. One synergistic study is determined based on the minimum inhibitory concentration (MIC), the lowest concentration of a biocide prevents the growth of tested microorganism under a specific set of conditions. The second study was based on three to four consecutive challenge testing. This test was conducted to take biocide mode of action and speed of kill into a consideration.
(§2) The microorganisms tested are Escherichia coli (E. coli, ATCC #8739), yeast, Candida albicans (c. albicans, ATCC #10231) and mold, Aspergillus niger (a. niger, ATCC #16404). The final concentration of microorganisms in the tested media is about 10^4 cfu/mL
(§3) MBIT synergy with a secondary biocide was determined by evaluating the minimum biocide or biocide blend concentration required to inhibit microbial growth. All studies were conducted using a 96 well microtiter plate format. For all studies, 200 μl of microbial growth media, containing various concentrations of MBIT alone, the secondary biocide alone, or combinations of both biocide chemistries, was added to individual wells of a microtiter plate. Specifically, Tryptic Soy Broth (TSB) was utilized for bacteria (E. coli, ATCC #8739), Yeast Malt Extract Broth (YMB) for yeast (Candida albicans, ATCC #10231) and Potato Dextrose Broth (PDB) for mold (Aspergillus niger, ATCC #16404). Test organisms, at a final concentration of 10^4 CFU/mL or 10^4 spores/mL, were applied to each well in parallel experiments to initiate the MIC evaluations. Growth medium containing no biocide was utilized as a control in each experimental setup to confirm the growth viability of each organism. Eight concentrations (2-fold dilutions) of each individual biocide were evaluated in the microbial growth inhibition studies in addition to the 64 possible combinations of these biocide concentrations. Evaluation of the individual biocide concentrations is required to achieve an inhibitory concentration end point for synergy index calculation. […] Individual wells were scored as growth or no growth based on visual organism growth turbidity.

[2] = test system: Aspergillus niger (ATCC #16404); assay: Minimum Inhibitory Concentration (MIC) synergy study, mold; settings: for Minimum Inhibitory Concentration (ppm) MBIT: A. niger, MBIT alone (1:0) or MBIT portion of the mixture
Experimental: as §1, §2, §3

[3] = test system: Escherichia coli (ATCC #8739); assay: Minimum Inhibitory Concentration (MIC) synergy study, bacteria; settings: for Minimum Inhibitory Concentration (ppm) MBIT: E. coli, MBIT alone (1:0) or MBIT portion of the mixture
Experimental: as §1, §2, §3

[4] = test system: Escherichia coli (ATCC #8739); assay: Minimum Kill Concentration (MKC) repeated challenge test, bacteria; settings: for MIC: Escherichia coli; for Minimum Inhibitory Concentration (ppm) MBIT: MBIT alone (1:0) or MBIT portion of the mixture
Experimental: as §1
(§4) MKC evaluations were utilized to determine the synergy of MBIT with the co-biocides DXN (6-Acetoxy-2,4-dimethyl-m-dioxane) and THNM (2-Hydroxymethyl-2-nitro-1,3-propanediol) due to the inability to evaluate these particular biocide chemistries in MIC evaluations. The following test methods were designed for the evaluation of the aforementioned synergistic combinations. The results can be found in Tables 7 and 8.
Testing began (day 0) by applying sterile water, supplemented with 2.0% TSB, to each well of a 96-well microtiter plate. Various concentrations of MBIT alone, the co-biocide alone, or combinations of both biocide chemistries, were added to individual wells of the microtiter plate followed by addition of Escherichia coli (ATCC #8739) at a final concentration of 5×10^4 CFU/mL. Equivalent inoculations were applied on days 7, 14 and 21 of the study. To determine the extent of bacterial kill, an aliquot (20 μl) of each sample was taken on days 1, 7, 8, 14, 15, 21, 22 and transferred to tryptic soy broth (180 μl). After 48 hours of incubation at 30° C., bacterial kill (to a maximum detection limit of 5×10^1 CFU/mL) was visually determined by the presence or lack of turbidity within the TSB.

[5] = test system: Candida albicans (ATCC #10231); assay: Minimum Kill Concentration (MKC) repeated challenge test, yeast
Experimental: as §1, §4
(§5) Testing began (day 0) by applying sterile water, supplemented with 2.0% yeast malt extract broth, to each well of a 96-well microtiter plate. […] After 48 hours of incubation at 30° C., yeast kill (to a maximum detection limit of 5×10^1 CFU/mL) was visually determined by the presence or lack of turbidity within the YMB.

[6] = test system: Aspergillus niger (ATCC #16404); assay: Minimum Kill Concentration (MKC) repeated challenge test, mold
Experimental: as §1, §4
as §5, with “potato dextrose” for “yeast malt extract”, “48-96” for “48”, “mold” for “yeast”, “spores/mL)” for “CFU/mL)”, “PDB.” for “YMB.”

Work on `CCCCCCCCCCCCNC(=N)N` [DDG, Dodecylguanidine hydrochloride] yielded an MIC ([1]; ATCC10231, read-out: Minimum Inhibitory Concentration (ppm) DDG) of 2000 µg/mL, an MIC ([2]; Aspergillus niger, ATCC16404, read-out: Minimum Inhibitory Concentration (ppm) DDG) of 750 µg/mL and an MIC ([3]; Escherichia coli, ATCC8739, read-out: Minimum Inhibitory Concentration (ppm) DDG) of 875 µg/mL.

Molecule `CC(=O)OC1CC(C)OC(C)O1` (stereo not drawn) [DXN, 6-Acetoxy-2,4-dimethyl-m-dioxane] has an MIC ([4]; ATCC8739, 168 h, Table 7, kill of E. coli at day 7, DXN alone (0:1) or DXN portion of the mixture, read-out: Minimum Inhibitory Concentration (ppm) DXN) of 875 µg/mL, an MIC ([5]; Candida albicans, ATCC10231, 504 h, Table 7, kill of C. albicans at day 21, DXN alone (0:1) or DXN portion of the mixture, read-out: Minimum Inhibitory Concentration (ppm) DXN) of 2000 µg/mL and an MIC ([6]; Aspergillus niger, ATCC16404, 504 h, Table 7, kill of A. niger at Day 21, DXN alone (0:1) or DXN portion of the mixture, read-out: Minimum Inhibitory Concentration (ppm) DXN) of 750 µg/mL.

With `Cn1sc2ccccc2c1=O` [MBIT, N-methyl-1,2-benzisothiazolin-3-one] the “Minimum Inhibitory Concentration (ppm) MBIT” value ([1]; Table 1, MBIT/DDG study) was 6.25 ppm, the “Minimum Inhibitory Concentration (ppm) MBIT” value ([1]; Table 2, MBIT/PHMB study) was 0.3125 ppm and the “Minimum Inhibitory Concentration (ppm) MBIT” value ([1]; Table 5, MBIT/Terbutryn study) was 3 ppm. For the same molecule, the “Minimum Inhibitory Concentration (ppm) MBIT” value ([4]; Table 7, MBIT/DXN study, kill of E. coli at day 7) was 62.5 ppm, the “Minimum Inhibitory Concentration (ppm) MBIT” value ([4]; Table 8, MBIT/THNM study, kill of E. coli at day 21) was 125 ppm and the “Minimum Inhibitory Concentration (ppm) MBIT” value ([5]; Table 7, MBIT/DXN study, kill of C. albicans at day 21, MBIT alone (1:0) or MBIT portion of the mixture) was 6.25 ppm. The “Minimum Inhibitory Concentration (ppm) MBIT” value ([2]; Table 1, MBIT/DDG study) was 10 ppm, the “Minimum Inhibitory Concentration (ppm) MBIT” value ([2]; Table 3, MBIT/NaPT study) was 6.3 ppm and the “Minimum Inhibitory Concentration (ppm) MBIT” value ([2]; Table 4, MBIT/NaOPP study) was 6.3 ppm. The “Minimum Inhibitory Concentration (ppm) MBIT” value ([6]; Table 7, MBIT/DXN study, kill of A. niger at Day 21, MBIT alone (1:0) or MBIT portion of the mixture) was 10 ppm, the “Minimum Inhibitory Concentration (ppm) MBIT” value ([3]; Table 1, MBIT/DDG study) was 62.5 ppm and the “Minimum Inhibitory Concentration (ppm) MBIT” value ([3]; Table 2, MBIT/PHMB study) was 12.5 ppm. For the same molecule, the “Minimum Inhibitory Concentration (ppm) MBIT” value ([3]; Table 3, MBIT/NaPT study) was 25 ppm.

`[Na+].[O-]c1ccccc1-c1ccccc1` [NaOPP, sodium ortho-phenylphenate] was tested, and the “Minimum Inhibitory Concentration (ppm) NaOPP” value ([2]; Table 4, A. niger, NaOPP alone (0:1) or NaOPP portion of the mixture) was 200 ppm.

With `[Na+].[O-][n+]1ccccc1[S-]` [NaPT, Sodium pyrithione] the “Minimum Inhibitory Concentration (ppm) NaPT” value ([2]; Table 3, A. niger, NaPT alone (0:1) or NaPT portion of the mixture) was 25 ppm and the “Minimum Inhibitory Concentration (ppm) NaPT” value ([3]; Table 3, E. coli, NaPT alone (0:1) or NaPT portion of the mixture) was 2.5 ppm.

In the case of `O=[N+]([O-])C(CO)(CO)CO` [THNM, 2-Hydroxymethyl-2-nitro-1,3-propanediol], the MIC ([4]; ATCC8739, 504 h, Table 8, kill of E. coli at day 21, THNM alone (0:1) or value printed for the mixture, read-out: Minimum Inhibitory Concentration (ppm) THMN) is reported as 125 µg/mL.

Work on `CCNc1nc(NC(C)(C)C)nc(SC)n1` [Terbutryn] yielded an MIC ([1]; ATCC10231, Table 5, C. albicans, Terbutryn alone (0:1) or Terbutryn portion of the mixture, read-out: Minimum Inhibitory Concentration (ppm) Terbutryn) greater than 20000 µg/mL.

Source: patent publication US9510597B2, “Microbicidal composition” (Dow Global Technologies LLC, priority 2012, dated 2016)
